{"source": "patent US20040138094A1", "about": "“Treatment regimes” (priority 2003, published 2004)", "key": {"[1]": {"system": "THP1 macrophages", "assay": "ApoA1-specific cholesterol efflux from THP1 macrophages", "format": "cell-based, human", "experimental": "(§1) Following differentiation to macrophages, THP1 cells were washed in serum-free medium and incubated in 5% FBS medium containing 1 μCi/mL of [^3H]-cholesterol (New England Nuclear) and 0.2% fatty acid-free BSA (faf BSA) for a further 24 h. The cells were washed in serum-free medium and then incubated for 24 h in serum-free medium supplemented with 1.5% faf BSA±test compound or vehicle (0.1% DMSO). The equilibration medium was removed and the cells washed twice in serum-free medium. Serum-free DMEM containing compound±purified human apolipoprotein (apo) Al ([…], Athens Research & Technology) was added. The cells were maintained for 24 h before medium and cell extract samples were generated. Scintillation counting was performed to determine the percentage cellular cholesterol efflux±apoAl. 1BR3N human skin fibroblast cells were plated in 6-well plates at a density of 1×10^6 cells/well in DMEM medium containing 10% FBS and cultured for 24 h. Efflux studies were performed as in the THP1 macrophages except that the cells were maintained for 48 h before scintillation counting was performed."}, "[2]": {"system": "ABCA1 mRNA in THP1 macrophages", "assay": "ABCA1 mRNA expression by RTQ-PCR in THP1 macrophages", "format": "cell-based, human", "conditions": "for Induction of ABCA1 mRNA expression (in words): THP1 macrophages, 100 nM, FIG. 1A", "experimental": "(§2) THP1 human monocyte cells (ATCC TID-202), in 6-well plates at a density of 1×10^6 cells/well in RPMI 1640 medium containing 10% FBS, were differentiated into macrophages by treatment with PMA (100 ng/ml) for 5 days. 1BR3N human skin fibroblasts (ECACC 90020508) and FHS74 human intestinal cells (ATCC CCL-241) were plated in 6 well plates at a density of 1×10^6 cells/well in the recommended maintenance media. Cells were treated with vehicle (0.1% DMSO) or test compound for 48 h prior to harvesting. Total RNA was generated using the Qiagen RNeasy Mini Kit and DNase treated according to the manufacturer's protocol (Ambion). ABCA1 expression was analysed using RTQ-PCR on an ABI PRISM 7700 sequence detection system (P. E. Applied Biosystems). Primer/probe sequences used were as follows: ABCA1 forward primer 5′-[…]-3′, (Seq ID No:1) reverse primer 5′-[…]-3′, (Seq ID No:2) probe 5′FAM-[…]-TAMRA3′ (Seq ID No:3) Expression data were normalised to 18S as described by the vendor."}, "[3]": {"system": "ABCA1 mRNA in 1BR3N human skin fibroblasts", "assay": "ABCA1 mRNA expression by RTQ-PCR in 1BR3N human skin fibroblasts", "format": "cell-based", "experimental": "as §2"}, "[4]": {"system": "ABCA1 mRNA in FHS74 human intestinal cells", "assay": "ABCA1 mRNA expression by RTQ-PCR in FHS74 human intestinal cells", "format": "cell-based", "experimental": "as §2"}, "[5]": {"system": "1BR3N human skin fibroblasts", "assay": "ApoA1-specific cholesterol efflux from 1BR3N human skin fibroblasts", "format": "cell-based", "experimental": "as §1"}, "[6]": {"system": "ABCA1 in macrophages", "conditions": "50 μM, reported in ref 16; cited from earlier work"}, "[7]": {"system": "macrophages", "conditions": "50 μM, reported in ref 16; cited from earlier work"}, "[8]": {"conditions": "THP1 macrophages, 100 nM, FIG. 1B"}}, "data": [{"smiles": "COC(=O)c1ccccc1N[C@@H](Cc1ccc(OCCc2nc(-c3ccccc3)oc2C)cc1)C(=O)O", "note": "[GW7845, reference compound]", "values": [{"measurement": "Effect on cholesterol efflux (in words)", "setting": "[1]; [8]", "value": "ineffective"}, {"measurement": "Induction of ABCA1 mRNA expression (in words)", "setting": "[2]", "value": "also induced ABCA1 expression"}]}, {"smiles": "Cc1cc(SCc2sc(-c3ccc(C(F)(F)F)cc3)nc2C)ccc1OCC(=O)O", "note": "[GW501516, 2-(2-methyl-4[({4-methyl-2[4-(trifluoromethyl)phenyl]-1,3-thiazol-5-yl}methyl)sulfanyl]phenoxy}acetic acid]", "values": [{"measurement": "ABCA1 mRNA (% increase)", "setting": "[3]; 1BR3N fibroblast, 48 h, (GW-vehicle)/vehicle × 100, mean ± S.D., triplicate", "value": "240 ± 25", "unit": "%"}, {"measurement": "Increase in ABCA1 expression", "setting": "[3]; 1BR3N human skin fibroblasts", "value": 3.4, "unit": "fold"}, {"measurement": "Cholesterol efflux (% increase)", "setting": "[1]; THP1 macrophage, (GW-vehicle)/vehicle × 100, mean ± S.D., triplicate", "value": "100 ± 15", "unit": "%"}, {"measurement": "Increase in cholesterol efflux to apoA1", "setting": "[1]; [8]", "value": 2, "unit": "fold"}, {"measurement": "ABCA1 mRNA (% increase)", "setting": "[2]; THP1 macrophage, 48 h, (GW-vehicle)/vehicle × 100, mean ± S.D., triplicate", "value": "460 ± 150", "unit": "%"}, {"measurement": "Induction of ABCA1 mRNA expression (in words)", "setting": "[2]", "value": "strong induction"}, {"measurement": "Increase in ABCA1 expression", "setting": "[4]; FHS74 human intestinal cells", "value": 2.1, "unit": "fold"}, {"measurement": "ABCA1 mRNA (% increase)", "setting": "[4]; FHS74 intestinal, 48 h, (GW-vehicle)/vehicle × 100, mean ± S.D., triplicate", "value": "115 ± 30", "unit": "%"}, {"measurement": "Cholesterol efflux (% increase)", "setting": "[5]; 1BR3N fibroblast, (GW-vehicle)/vehicle × 100, mean ± S.D., triplicate", "value": "110 ± 10", "unit": "%"}, {"measurement": "Increase in apoA1-specific cholesterol efflux", "setting": "[5]; 1BR3N human skin fibroblasts", "value": 2, "unit": "fold"}]}, {"smiles": "CC(C)(Sc1ccc(CCN(CCCCC2CCCCC2)C(=O)NC2CCCCC2)cc1)C(=O)O", "note": "[GW7647, reference compound]", "values": [{"measurement": "Effect on cholesterol efflux (in words)", "setting": "[1]; [8]", "value": "ineffective"}, {"measurement": "Induction of ABCA1 mRNA expression (in words)", "setting": "[2]", "value": "only a weak effect"}]}, {"smiles": "Cc1cccc(Nc2cc(Cl)nc(SCC(=O)O)n2)c1C", "note": "[Wy14,643]", "values": [{"measurement": "ABCA1 expression (in words)", "setting": "[6]", "value": "induces"}, {"measurement": "Cholesterol efflux from macrophages (in words)", "setting": "[7]", "value": "induces"}]}]}
